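Five concentrations, 48 hours, 96-well plates. GI50: concentration for 50% inhibition of growth.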 Activity calls are given as the source filed them. No stated cut-off is given here; in the data, active = GI50 up to about 1.1 µM and inactive = higher.
Tests used:
Assay in all cases: inhibition of tumour cell growth, NCI panel, 48 h
EKVX = system: EKVX
LOX IMVI = system: LOX IMVI
RPMI-8226 = system: RPMI-8226
SNB-19 = system: SNB-19
HT-29 = system: HT-29
UACC-62 = system: UACC-62
SN12C = system: SN12C
NCI-H522 = system: NCI-H522
K562 = system: K562
SW-620 = system: SW-620
HCT-116 = system: HCT-116
A549 = system: A549
A498 = system: A498
HCT-15 = system: HCT-15
T47D = system: T47D
Hs-578T = system: Hs-578T
MOLT-4 = system: MOLT-4
KM12 = system: KM12
M14 = system: M14
MCF7 = system: MCF7
OVCAR-5 = system: OVCAR-5
MDA-MB-231 = system: MDA-MB-231
HL-60 = system: HL-60
MDA-N = system: MDA-N
SK-MEL-5 = system: SK-MEL-5
HOP-92 = system: HOP-92
OVCAR-4 = system: OVCAR-4
IGROV-1 = system: IGROV-1
SK-MEL-2 = system: SK-MEL-2
COLO 205 = system: COLO 205
OVCAR-3 = system: OVCAR-3
UACC-257 = system: UACC-257
TK-10 = system: TK-10
HCC 2998 = system: HCC 2998
SF-268 = system: SF-268
Malme-3M = system: Malme-3M
NCI-H226 = system: NCI-H226
CCRF-CEM = system: CCRF-CEM
SF-295 = system: SF-295
PC-3 = system: PC-3
SF-539 = system: SF-539
NCI-H460 = system: NCI-H460
OVCAR-8 = system: OVCAR-8
SK-MEL-28 = system: SK-MEL-28
NCI-H23 = system: NCI-H23
CAKI-1 = system: CAKI-1
SR = system: SR
HOP-62 = system: HOP-62
BT-549 = system: BT-549
MDA-MB-435 = system: MDA-MB-435
786-0 = system: 786-0
SNB-75 = system: SNB-75
DU-145 = system: DU-145
SK-OV-3 = system: SK-OV-3
ACHN = system: ACHN
U-251 = system: U-251
RXF 393 = system: RXF 393
UO-31 = system: UO-31
NCI/ADR-RES = system: NCI/ADR-RES

For `O=C1OC(c2ccco2)=N/C1=C\c1cccc([N+](=O)[O-])c1`, the GI50 (EKVX) was > 100 µM (inactive), the GI50 (LOX IMVI) was > 100 µM (inactive) and the GI50 (RPMI-8226) was > 100 µM (inactive). For the same compound, the GI50 (SNB-19) was > 100 µM (inactive), the GI50 (HT-29) was > 100 µM (inactive) and the GI50 (UACC-62) was > 100 µM (inactive). For the same compound, the GI50 (SN12C) was > 100 µM (inactive), the GI50 (NCI-H522) was > 100 µM (inactive) and the GI50 (K562) was > 100 µM (inactive). For the same compound, the GI50 (SW-620) was > 100 µM (inactive), the GI50 (HCT-116) was > 100 µM (inactive) and the GI50 (A549) was > 100 µM (inactive). For the same compound, the GI50 (A498) was > 100 µM (inactive), the GI50 (HCT-15) was > 100 µM and the GI50 (T47D) was > 100 µM (inactive). The GI50 (Hs-578T) was > 100 µM (inactive), the GI50 (MOLT-4) was > 100 µM (inactive) and the GI50 (KM12) was > 100 µM (inactive). The GI50 (M14) was > 100 µM (inactive), the GI50 (MCF7) was > 100 µM (inactive) and the GI50 (OVCAR-5) was > 100 µM (inactive). For the same compound, the GI50 (MDA-MB-231) was > 100 µM (inactive), the GI50 (HL-60) was > 100 µM (inactive) and the GI50 (MDA-N) was > 100 µM (inactive). The GI50 (SK-MEL-5) was > 100 µM (inactive), the GI50 (HOP-92) was > 100 µM (inactive) and the GI50 (OVCAR-4) was > 100 µM (inactive). The GI50 (IGROV-1) was > 100 µM (inactive), the GI50 (SK-MEL-2) was > 100 µM (inactive) and the GI50 (COLO 205) was > 100 µM (inactive). The GI50 (OVCAR-3) was > 100 µM (inactive), the GI50 (UACC-257) was > 100 µM (inactive) and the GI50 (TK-10) was > 100 µM (inactive). The GI50 (HCC 2998) was > 100 µM (inactive), the GI50 (SF-268) was > 100 µM (inactive) and the GI50 (Malme-3M) was > 100 µM (inactive). For the same compound, the GI50 (NCI-H226) was > 100 µM (inactive), the GI50 (CCRF-CEM) was > 100 µM (inactive) and the GI50 (SF-295) was > 100 µM (inactive). For the same compound, the GI50 (PC-3) was > 100 µM (inactive), the GI50 (SF-539) was > 100 µM (inactive) and the GI50 (NCI-H460) was > 100 µM (inactive). The GI50 (OVCAR-8) was > 100 µM (inactive), the GI50 (SK-MEL-28) was > 100 µM (inactive) and the GI50 (NCI-H23) was > 100 µM (inactive). For the same compound, the GI50 (CAKI-1) was > 100 µM (inactive), the GI50 (SR) was > 100 µM (inactive) and the GI50 (HOP-62) was > 100 µM (inactive). For the same compound, the GI50 (BT-549) was > 100 µM (inactive), the GI50 (MDA-MB-435) was > 100 µM (inactive) and the GI50 (786-0) was > 100 µM (inactive). For the same compound, the GI50 (SNB-75) was > 100 µM (inactive), the GI50 (DU-145) was > 100 µM (inactive) and the GI50 (SK-OV-3) was > 100 µM (inactive). For the same compound, the GI50 (ACHN) was > 100 µM (inactive) and the GI50 (U-251) was > 100 µM (inactive).
For `c1ccc([P+](c2ccccc2)(c2ccccc2)C2c3ccccc3-c3ccccc32)cc1`, the GI50 (RXF 393) was 1.86 µM (inactive), the GI50 (LOX IMVI) was 1.32 µM (inactive) and the GI50 (RPMI-8226) was 1.35 µM (inactive). For the same compound, the GI50 (SNB-19) was 2.79 µM (inactive), the GI50 (HT-29) was 0.74 µM (active) and the GI50 (UACC-62) was 1.26 µM (inactive). For the same compound, the GI50 (UO-31) was 2.67 µM (inactive), the GI50 (SN12C) was 2.36 µM (inactive) and the GI50 (NCI-H522) was 2.19 µM (inactive). For the same compound, the GI50 (K562) was 1.9 µM (inactive), the GI50 (SW-620) was 3.08 µM (inactive) and the GI50 (HCT-116) was 0.473 µM (active). The GI50 (A549) was 2.88 µM (inactive), the GI50 (A498) was 1.75 µM (inactive) and the GI50 (HCT-15) was 3.01 µM. For the same compound, the GI50 (T47D) was 2.71 µM (inactive), the GI50 (Hs-578T) was 2.21 µM (inactive) and the GI50 (MOLT-4) was 1.67 µM (inactive). For the same compound, the GI50 (M14) was 3.14 µM (inactive), the GI50 (MCF7) was 2.25 µM (inactive) and the GI50 (OVCAR-5) was 2.59 µM (inactive). For the same compound, the GI50 (MDA-MB-231) was 2.52 µM (inactive), the GI50 (HL-60) was 1.16 µM (inactive) and the GI50 (MDA-N) was 0.895 µM (active). For the same compound, the GI50 (SK-MEL-5) was 1.77 µM (inactive), the GI50 (IGROV-1) was 1.98 µM (inactive) and the GI50 (SK-MEL-2) was 1.71 µM (inactive). The GI50 (COLO 205) was 1.33 µM (inactive), the GI50 (OVCAR-3) was 1.87 µM (inactive) and the GI50 (UACC-257) was 2.31 µM (inactive). The GI50 (TK-10) was 2.53 µM (inactive), the GI50 (HCC 2998) was 2.6 µM (inactive) and the GI50 (SF-268) was 2.77 µM (inactive). The GI50 (NCI/ADR-RES) was 15.3 µM (inactive), the GI50 (Malme-3M) was 2.35 µM (inactive) and the GI50 (NCI-H226) was 1.95 µM (inactive). For the same compound, the GI50 (CCRF-CEM) was 1.89 µM (inactive), the GI50 (SF-295) was 1.75 µM (inactive) and the GI50 (PC-3) was 1.47 µM (inactive). For the same compound, the GI50 (SF-539) was 2.75 µM (inactive), the GI50 (NCI-H460) was 1.83 µM (inactive) and the GI50 (OVCAR-8) was 2.81 µM (inactive). The GI50 (SK-MEL-28) was 3.01 µM (inactive), the GI50 (NCI-H23) was 1.9 µM (inactive) and the GI50 (CAKI-1) was 3.46 µM (inactive). The GI50 (HOP-62) was 1.5 µM (inactive), the GI50 (BT-549) was 2.94 µM (inactive) and the GI50 (MDA-MB-435) was 0.655 µM (active). The GI50 (786-0) was 3.09 µM (inactive), the GI50 (SNB-75) was 2.45 µM (inactive) and the GI50 (DU-145) was 2.87 µM (inactive). For the same compound, the GI50 (SK-OV-3) was 1.33 µM (inactive), the GI50 (ACHN) was 2.35 µM (inactive) and the GI50 (U-251) was 1.57 µM (inactive).
